Measurements as given in US20030216444A1, “Benzoylpyridine derivative or its salt, fungicide containing it as an active ingredient, its production process and intermediate for producing it” (priority 2000, published 2003).

Row | melting point [°C] | Structure (SMILES)
1 | 110 to 112 | COc1cc(C)c(C(=O)c2c(C(F)(F)F)ccnc2Cl)c(OC)c1OC [compound No. 11, 3-(2,3,4-trimethoxy-6-methylbenzoyl)-2-chloro-4-trifluoromethylpyridine]
2 | 109 to 112 | COc1cc(C)c(C(=O)c2c(Cl)nc(Cl)c(C(C)=O)c2C(F)(F)F)c(OC)c1OC [compound No. 62, 5-(2,3,4-trimethoxy-6-methylbenzoyl)-3-acetyl-2,6-dichloro-4-trifluoromethylpyridine]
3 | 98 to 99 | COc1cc(C)c(C(=O)c2c(OC)cnc(Cl)c2Cl)c(OC)c1OC [compound No. 193, 4-(2,3,4-trimethoxy-6-methylbenzoyl)-2,3-dichloro-5-methoxypyridine]
4 | 97 to 99 | COc1cc(C)c(C(=O)c2c(OC)cnc(Br)c2Cl)c(OC)c1OC [compound No. 245, 4-(2,3,4-trimethoxy-6-methylbenzoyl)-2bromo-3-chloro-5-methoxypyridine]
5 | 88 to 93 | COc1cc(C)c(C(=O)c2c(C)cncc2Br)c(OC)c1OC [compound No. 228, 4-(2,3,4-trimethoxy-6-methylbenzoyl)-3-bromo-5-methylpyridine]
6 | 109 to 111 | COc1cc(C)c(C(=O)c2c(Cl)cncc2Cl)c(OC)c1OC [compound No. 191, 4-(2,3,4-trimethoxy-6-methylbenzoyl)-3,5-dichloropyridine]
7 | 60 to 61 | COc1cc(C)c(C(=O)c2c(Cl)cnc(Cl)c2Cl)c(OC)c1OC [compound No. 186, 4-(2,3,4-trimethoxy-6-methylbenzoyl)-2,3,5-trichloropyridine]
8 | 145 to 147 | COc1cc(C)c(C(=O)c2c(OC)cnc(Br)c2C(F)(F)F)c(OC)c1OC [compound No. 124, 4-(2,3,4-trimethoxy-6-methylbenzoyl)-2-bromo-3-trifluoromethyl-5-methoxypyridine]
9 | 103 to 106 | COc1cc(C)c(C(=O)c2c(OC)cncc2C(F)(F)F)c(OC)c1OC [compound No. 122, 4-(2,3,4-trimethoxy-6-methylbenzoyl)-3-methoxy-5-trifluoromethylpyridine]
10 | 59 to 62 | COc1cc(C)c(C(=O)c2cnccc2C(F)(F)F)c(OC)c1OC [compound No. 7, 3-(2,3,4-trimethoxy-6-methylbenzoyl)-4-trifluoromethylpyridine]
11 | 117 to 119 | COc1cc(C)c(C(=O)c2c(OC)cnc(Cl)c2C(F)(F)F)c(OC)c1OC [compound No. 123, 4-(2,3,4-trimethoxy-6-methylbenzoyl)-2-chloro-3-trifluoromethyl-5-methoxypyridine]
12 | 116 to 117 | COc1cc(C)c(C(=O)c2c(C(F)(F)F)ccnc2Cl)cc1OCc1ccccc1 [compound No. 27, 3-(5-benzyloxy-4-methoxy-2-methylbenzoyl)-2-chloro-4-trifluoromethylpyridine]
13 | 125 to 127 | COc1cc(C)c(C(=O)c2c(C(F)(F)F)ccnc2OC)cc1OC [compound No. 32, 3-(4,5-dimethoxy-2-methylbenzoyl)-2-methoxy-4-trifluoromethylpyridine]
14 | 106 to 109 | COc1cc(C)c(C(=O)c2c(Cl)cnc(Cl)c2C(F)(F)F)c(OC)c1OC [compound No. 90, 4-(2,3,4-trimethoxy-6-methylbenzoyl)-2,5-dichloro-3-trifluoromethylpyridine]
15 | 81 to 83 | COc1cc(C)c(C(=O)c2c(C(F)(F)F)cc(Cl)nc2Cl)c(OC)c1OC [compound No. 3, 3-(2,3,4-trimethoxy-6-methylbenzoyl)-2,6-dichloro-4-trifluoromethylpyridine]
16 | 75 to 77 | COc1cc(C)c(C(=O)c2c(Cl)cncc2C(F)(F)F)c(OC)c1OC [compound No. 102, 4-(2,3,4-trimethoxy-6-methylbenzoyl)-3-chloro-5-trifluoromethylpyridine]
